Experimental data published in ChEMBL document CHEMBL1138160, “In vivo stability and photodynamic efficacy of fluorinated bacteriopurpurinimides derived from bacteriochlorophyll-a” (2006).

How the values were obtained:
RIF-1 = experiment: Photosensitizing efficacy in RIF cells at 0.6-2.5 uM and light dose of 0-10 J/cm2 by MTT assay; type: functional, cell-based; settings: Mus musculus
Mus musculus = experiment: In vivo photosensitizing efficacy in RIF cells of C3H mouse at 1 umol/kg 90 days post-dose; type: functional

CC[C@H]1c2cc3nc4c(c5[nH]c(cc6[nH]c(cc(n2)[C@@H]1C)c(C(C)NCc1cc(C(F)(F)F)cc(C(F)(F)F)c1)c6C)[C@@H](C)[C@@H]5CCC(=O)OC)C(=O)N(Cc1cc(C(F)(F)F)cc(C(F)(F)F)c1)C(=O)C4=C3C (some centres not stated)
Activity (RIF-1): Dose-dependent effect | Activity (Mus musculus): 60%
